The source of these data is US20240415840A1, “BICYCLIC AMINES AS CDK2 INHIBITORS” (Incyte Corporation, priority 2023, published 2024).

For one data set, the target named is T1, CDK2/Cyclin E1 (Homo sapiens, UniProt P24941).
T1 construct: enzyme activity assays utilize full-length human CDK2; GST (N); purchased Carna 04-165; host or cells: baculovirus expression system
The experiment in a line: CDK2/Cyclin E1 HTRF enzyme activity assay. The data set is classed as biochemical. The following applies: 1 mM ATP. As to the method: CDK2/Cyclin E1 enzyme activity assays utilize full-length human CDK2 co-expressed as N-terminal GST-tagged protein with FLAG-Cyclin E1 in a baculovirus expression system (Carna Product Number 04-165). Assays were conducted in white 384-well polystyrene plates in a final reaction volume of 8 μL. CDK2/Cyclin E1 (0.25 nM) was incubated with the compounds of the Examples (40 nL serially diluted in DMSO) in the presence of ATP (50 μM or 1 mM) and 50 nM ULight™-labeled eIF4E-binding protein 1 (THR37/46) peptide (PerkinElmer) in assay buffer (containing 50 mM HEPES pH 7.5, 1 mM EGTA, 10 mM MgCl2, 2 mM DTT, 0.05 mg/mL BSA, and 0.01% Tween 20) for 60 minutes at room temperature. The reactions were stopped by the addition of EDTA and Europium-labeled anti-phospho-4E-BP1 antibody (PerkinElmer), for a final concentration of 15 mM and 1.5 nM, respectively. HTRF signals were read after 1 hour at room temperature on a PHERAstar FS plate reader (BMG Labtech). Data was analyzed with Genedata Screener software using a three or four parameter dose response curve to determine IC50 for each compound.
(TR-FRET usually uses a lanthanide donor and a delayed reading to cut background.)

A short description of data set [1]: In vivo rat CNS protocol: brain, CSF and plasma concentrations after IV dosing. The protocol:
The brain, CSF, and plasma concentrations of the compound of Example 1 (8-isopropoxy-7-(1H-pyrazol-4-yl)-N-(tetrahydro-2H-pyran-4-yl)-[1,2,4]triazolo[1,5-c]pyrimidin-2-amine) were determined in rats after IV dosing. The compound of Example 1 was formulated in 10% dimethylacetamide in acidified saline. Male rats (n=4) were given an IV bolus of the compound of Example 1 at 2.0 mg/kg, followed by an IV infusion at 1.2 mg/kg/h for 4 hours. Blood samples were collected at 2 hours and 4 hours in tubes containing EDTA as anticoagulant and centrifuged to obtain plasma. At 4 hours, brain and CSF samples were also collected. The CSF samples were mixed with blank rat plasma (1:1 v/v) to minimize adsorption of the compound of Example 1 to the collection device. Brain, CSF, and plasma samples were frozen and concentrations of the compound of Example 1 were determined by LC-MS/MS.

Another data set addresses T2, BCRP (Homo sapiens, UniProt Q9UNQ0).
T2 construct: in vitro permeability studies using Caco-2 cells; endogenous in cells; host or cells: Caco-2 cells
T2 sequence (Q9UNQ0 1-655): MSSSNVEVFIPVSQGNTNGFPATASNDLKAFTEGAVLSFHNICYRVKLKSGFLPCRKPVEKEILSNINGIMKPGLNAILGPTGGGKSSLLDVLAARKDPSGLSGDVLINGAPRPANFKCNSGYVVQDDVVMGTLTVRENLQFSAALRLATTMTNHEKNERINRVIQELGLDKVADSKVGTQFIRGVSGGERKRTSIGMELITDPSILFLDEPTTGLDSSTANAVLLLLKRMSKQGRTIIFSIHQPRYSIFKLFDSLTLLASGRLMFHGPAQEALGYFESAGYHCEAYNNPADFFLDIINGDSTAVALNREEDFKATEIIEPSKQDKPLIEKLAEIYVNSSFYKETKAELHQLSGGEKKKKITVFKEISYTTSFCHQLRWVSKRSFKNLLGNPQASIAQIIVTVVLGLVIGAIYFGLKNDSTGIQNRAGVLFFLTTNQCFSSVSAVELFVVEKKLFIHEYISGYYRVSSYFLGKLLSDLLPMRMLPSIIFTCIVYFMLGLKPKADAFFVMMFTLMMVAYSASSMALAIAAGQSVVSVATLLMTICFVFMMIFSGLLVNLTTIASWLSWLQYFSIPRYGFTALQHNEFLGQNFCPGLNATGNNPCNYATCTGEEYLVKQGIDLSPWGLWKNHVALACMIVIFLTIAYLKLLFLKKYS
The experiment in a line: Efflux transporter substrate assessment (Caco-2 studies), BCRP. The data set is classed as in vitro ADME. Background: Caco-2 cells form a polarised layer with tight junctions and transporters.

In a further data set the target is T3, P-gp (Homo sapiens, UniProt P08183).
T3 construct: in vitro permeability studies using Caco-2 cells; endogenous in cells; host or cells: Caco-2 cells
T3 sequence (P08183 whole entry): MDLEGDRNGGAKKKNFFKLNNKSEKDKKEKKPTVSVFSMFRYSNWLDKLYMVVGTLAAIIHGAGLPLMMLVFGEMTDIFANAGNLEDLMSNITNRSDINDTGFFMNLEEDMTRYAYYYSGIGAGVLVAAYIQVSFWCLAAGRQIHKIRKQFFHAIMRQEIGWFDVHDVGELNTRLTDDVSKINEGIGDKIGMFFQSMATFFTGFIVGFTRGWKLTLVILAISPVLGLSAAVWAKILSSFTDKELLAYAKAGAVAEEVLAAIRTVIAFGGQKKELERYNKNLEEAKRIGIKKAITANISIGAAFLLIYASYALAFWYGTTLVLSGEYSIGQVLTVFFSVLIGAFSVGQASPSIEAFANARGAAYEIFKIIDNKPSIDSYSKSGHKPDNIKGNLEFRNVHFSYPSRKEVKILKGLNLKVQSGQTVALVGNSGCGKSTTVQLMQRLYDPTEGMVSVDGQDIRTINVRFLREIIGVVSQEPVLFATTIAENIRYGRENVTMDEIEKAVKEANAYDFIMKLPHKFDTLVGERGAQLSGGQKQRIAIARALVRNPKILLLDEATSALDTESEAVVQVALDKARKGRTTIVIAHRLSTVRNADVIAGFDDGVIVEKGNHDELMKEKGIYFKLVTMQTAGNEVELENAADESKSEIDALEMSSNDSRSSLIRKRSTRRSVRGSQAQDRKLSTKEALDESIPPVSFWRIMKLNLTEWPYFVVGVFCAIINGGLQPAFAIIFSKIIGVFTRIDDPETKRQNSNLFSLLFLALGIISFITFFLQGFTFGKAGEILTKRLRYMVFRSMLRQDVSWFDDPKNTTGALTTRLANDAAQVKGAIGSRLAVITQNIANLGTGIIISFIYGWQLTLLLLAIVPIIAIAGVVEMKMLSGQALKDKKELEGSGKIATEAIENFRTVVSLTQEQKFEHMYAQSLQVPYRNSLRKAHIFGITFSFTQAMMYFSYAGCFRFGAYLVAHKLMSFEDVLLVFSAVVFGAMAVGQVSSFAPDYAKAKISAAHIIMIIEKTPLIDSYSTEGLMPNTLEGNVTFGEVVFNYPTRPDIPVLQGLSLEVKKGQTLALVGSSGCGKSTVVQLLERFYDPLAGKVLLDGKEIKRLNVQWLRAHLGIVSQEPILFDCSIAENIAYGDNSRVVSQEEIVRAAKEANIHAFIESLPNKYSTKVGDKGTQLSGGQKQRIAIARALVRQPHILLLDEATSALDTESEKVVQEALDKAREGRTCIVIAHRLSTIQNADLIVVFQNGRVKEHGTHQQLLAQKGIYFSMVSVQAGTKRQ
Description: Efflux transporter substrate assessment (Caco-2 studies), P-gp. The data set is classed as in vitro ADME.

The nature of data set [2]: In vitro permeability studies using Caco-2 cells. The data set is classed as in vitro ADME. The following applies: human, A-B.
The next data set relates to Caco-2 cells. The experiment in a line: In vitro permeability studies using Caco-2 cells. The data set is classed as in vitro ADME.
The nature of data set [3]: In vitro rat plasma unbound fraction. The data set is classed as in vitro ADME.
[4] abbreviates: male rats (n=4), IV infusion, 4 h, mean ± SD.

Several values for one entry are separate records, joined by “and”; a condition that tells them apart may be missing. Equal values may be shown once. Read-outs that look alike come from different tables or passages of the source.

For the compound `CC(Oc1c(-c2cn[nH]c2)ccn2nc(NC3CCOCC3)nc12)C(F)(F)F` (single isomer, unassigned) [Example 3], the IC50 (commonly the concentration that gives 50% inhibition) at CDK2/Cyclin E1 is at most 10 nM.

For the compound `CC(Oc1c(-c2cn[nH]c2)ccn2nc(NC3CCOCC3)nc12)C(F)(F)F` (single isomer, unassigned) [Example 4], on CDK2/Cyclin E1, the concentration for half-maximal inhibition (IC50) was at most 10 nM.

In the case of `CC(Oc1c(-c2cn[nH]c2)ccn2nc(NC3CCOCC3)nc12)C(F)F` (single isomer, unassigned) [Example 5], on CDK2/Cyclin E1, the IC50 is at most 10 nM.

Compound `CC(Oc1c(-c2cn[nH]c2)ccn2nc(NC3CCOCC3)nc12)C(F)F` (single isomer, unassigned) [Example 6] displayed an IC50 against CDK2/Cyclin E1 of at most 10 nM.

`CC(Oc1c(-c2cn[nH]c2)ncn2nc(NC3CCOCC3)nc12)C(F)(F)F` (single isomer, unassigned) [Example 7]: the half-inhibitory concentration (IC50) against CDK2/Cyclin E1 is at most 10 nM.

Regarding `CC(Oc1c(-c2cn[nH]c2)ncn2nc(NC3CCOCC3)nc12)C(F)(F)F` (single isomer, unassigned) [Example 8], the half-inhibitory concentration (IC50) against CDK2/Cyclin E1 is at most 10 nM.

`CC(Oc1c(-c2cn[nH]c2)ncn2nc(NC3CCOCC3)nc12)C(F)F` (single isomer, unassigned) [Example 9] yielded a half-inhibitory concentration (IC50) against CDK2/Cyclin E1 of at most 10 nM.

`CC(Oc1c(-c2cn[nH]c2)ncn2nc(NC3CCOCC3)nc12)C(F)F` (single isomer, unassigned) [Example 10] came in with an IC50 at CDK2/Cyclin E1 of at most 10 nM.

Consider `CC(C)Oc1c(-c2cn[nH]c2)ncn2nc(NC3CCOCC3)nc12` [Example 1, 8-Isopropoxy-7-(1H-pyrazol-4-yl)-N-(tetrahydro-2H-pyran-4-yl)-[1,2,4]triazolo[1,5-c]pyrimidin-2-amine], for which the “Brain/Plasma (%)” value in data set [1] (4 h, individual rats 1001-1004) was 60% and 89% and 73%. Besides, the “CSF/unbound plasma concentration (%)” value in data set [1] (4 h, individual rats 1001-1004) is 37% and 42% and 38%. The “Plasma free (unbound) concentration, 4 h” value in data set [1] (calculated using rat plasma in vitro unbound fraction, 4 h, individual rats 1001-1004) is 1.45 µM and 1.22 µM and 1.70 µM. Further, the “Plasma total concentration, 4 h, mean” value in data set [1] (male rats (n=4), IV bolus 2.0 mg/kg then IV infusion 1.2 mg/kg/h for 4 h, 4 h, mean ± SD) stood at 2.41 ± 0.46 µM. Besides, the “Brain concentration, 4 h, mean” value in data set [1] (setting [4]) stood at 1740 ± 370 nM. The “CSF concentration, 4 h, mean” value in data set [1] (setting [4]) was found to be 0.579 ± 0.062 µM. Further, in data set [1] (male rats, IV bolus 2.0 mg/kg then IV infusion 1.2 mg/kg/h for 4 h, 2 h, individual rats 1001-1004), the “Plasma total concentration, 2 h” value is 1.44 µM and 1.41 µM and 1.71 µM. For the same compound, in data set [1] (male rats, IV bolus 2.0 mg/kg then IV infusion 1.2 mg/kg/h for 4 h, 4 h, individual rats 1001-1004), the “Plasma total concentration, 4 h” value is 2.55 µM and 2.14 µM and 2.98 µM. The concentration at 4 h in data set [1] (male rats, IV infusion, 4 h, individual rats 1001-1004, read-out: Brain concentration, 4 h) was 1520 nM and 1910 nM and 2170 nM; in data set [1] (male rats, IV infusion, 4 h, individual rats 1001-1004, read-out: CSF concentration, 4 h), 541 nM and 517 nM and 653 nM; in data set [1] (male, rat, CSF, iv, male rats (n=4), IV infusion, 4 h, mean ± SD, read-out: CSF concentration, 4 h, mean), 579 ± 62 nM; in data set [1] (male, rat, CSF, iv, male rats, IV infusion, 4 h, individual rats 1001-1004, read-out: CSF concentration, 4 h), 604 nM; in data set [1] (male, rat, brain, iv, male rats (n=4), IV infusion, 4 h, mean ± SD, read-out: Brain concentration, 4 h, mean), 1740 ± 370 nM; in data set [1] (male, rat, brain, iv, male rats, IV infusion, 4 h, individual rats 1001-1004, read-out: Brain concentration, 4 h), 1360 nM. Also, the concentration at 4 h in data set [1] (male, rat, plasma (unbound), intravenous, calculated using rat plasma in vitro unbound fraction, 4 h, individual rats 1001-1004, read-out: Plasma free (unbound) concentration, 4 h) was 1110 nM; in data set [1] (male, rat, plasma (unbound), intravenous, calculated using rat plasma in vitro unbound fraction, 4 h, mean ± SD, read-out: Plasma free (unbound) concentration, 4 h, mean), 1370 ± 260 nM; in data set [1] (male, rat, plasma, intravenous, male rats (n=4), IV bolus 2.0 mg/kg then IV infusion 1.2 mg/kg/h for 4 h, 4 h, mean ± SD, read-out: Plasma total concentration, 4 h, mean), 2410 ± 460 nM; in data set [1] (male, rat, plasma, intravenous, male rats, IV bolus 2.0 mg/kg then IV infusion 1.2 mg/kg/h for 4 h, 4 h, individual rats 1001-1004, read-out: Plasma total concentration, 4 h), 1950 nM. For the same compound, the Kp at 4 h in data set [1] (male, rat, CSF / unbound plasma, intravenous, 4 h, individual rats 1001-1004, read-out: CSF/unbound plasma concentration (%)) came out at 0.54; in data set [1] (male, rat, CSF / unbound plasma, intravenous, 4 h, mean, read-out: CSF/unbound plasma concentration (%), mean), 0.43; in data set [1] (male, rat, brain / plasma, intravenous, 4 h, individual rats 1001-1004, read-out: Brain/Plasma (%)) it was 0.7; in data set [1] (male, rat, brain / plasma, intravenous, 4 h, mean, read-out: Brain/Plasma (%), mean) it was 0.73. The concentration at 2 h is 1460 ± 180 nM in data set [1] (male, rat, plasma, intravenous, male rats (n=4), IV bolus 2.0 mg/kg then IV infusion 1.2 mg/kg/h for 4 h, 2 h, mean ± SD, read-out: Plasma total concentration, 2 h, mean) and 1270 nM in data set [1] (male, rat, plasma, intravenous, male rats, IV bolus 2.0 mg/kg then IV infusion 1.2 mg/kg/h for 4 h, 2 h, individual rats 1001-1004, read-out: Plasma total concentration, 2 h). Also, the “penetration across the rat blood-brain barrier (in words)” value in data set [1] (rat, IV infusion) is reported as “readily penetrates across the rat blood-brain barrier”. For the same compound, the half-maximal inhibitory concentration (IC50) against CDK2/Cyclin E1 was at most 10 nM. Also, at BCRP, the “substrate of BCRP efflux transporter” value is reported as “not a substrate”. Further, the “substrate of P-gp efflux transporter” value at P-gp is on record as “not a substrate”. In data set [2], the Papp A→B – broadly, the apparent permeability from the apical to the basolateral side of a cell layer – was determined as 16 ×10⁻⁶ cm/s. The “Caco-2 permeability (in words)” value in the data set on Caco-2 cells is “highly permeable”. Besides, the fraction unbound – broadly, the share of the substance not bound to proteins or other matrix – in data set [3] was 0.57.

With `CC(C)Oc1c(-c2cn[nH]c2)ccn2nc(NC3CCOCC3)nc12` [Example 2, 8-Isopropoxy-7-(1H-pyrazol-4-yl)-N-(tetrahydro-2H-pyran-4-yl)-[1,2,4]triazolo[1,5-a]pyridin-2-amine], the 50% inhibitory concentration (IC50) against CDK2/Cyclin E1 is at most 10 nM.
